In PMC4806491, “The milk-derived fusion peptide, ACFP, suppresses the growth of primary human ovarian cancer cells by regulating apoptotic gene expression and signaling pathways” (BMC Cancer, 2016):
Converted amounts (≈) assume the structure as drawn. “Also recorded” adds a separate entry of the source. Where two headings read alike, the source gives them in different places. Positions of bridges follow the written chain, without caps; N, C: chain ends. Residues, ends and D or L forms follow the SMILES beside them.

How the values were obtained:
stability in pH 7 water = type: physicochemical; conditions: n=3, Figure S2
[1] = tested on: primary ovarian cancer cells; experiment: Western blot of Bcl-xl, Bax, Akt, Caspase-3, CDC25C and CyclinB1 proteins; type: cell-based, human; conditions: 48 h
Description: Proteins were isolated from primary ovarian cancer cells harvested after ACFP treatment, separated by SDS-PAGE and transferred to PVDF membrane using the standard protocol. After blocking with 5 % (w/v) dry skim milk, membranes were incubated with primary antibodies (mouse monoclonal Bcl-xl, Bax, Akt, Caspase-3, CDC25C, CyclinB1 and β-Actin antibodies, 1:1000 dilution) according to the manufacturer’s instructions and later incubated with a horseradish peroxidase conjugated secondary antibody (goat anti-mouse IgG, 1:8000 dilution). The proteins were detected with the enhanced chemiluminescence (ECL) system followed by exposure to X-ray film. The β-Actin was used as a loading control. Two independent experiments were performed. Digital images were captured by Gel DocTM gel documentation system (Bio-Rad, USA) and intensities were quantified using Quantity-One software version 4.62 (Bio-Rad, USA).

[2] = tested on: primary ovarian cancer cells; experiment: Real time PCR of bcl-xl, bax, akt, caspase-3, CDC25C and cyclinB1 mRNA; type: cell-based, human; conditions: increasing concentration, 48 h, 2^-ΔΔCt, β-actin reference, 12 patients
From the text: An optimized RT-PCR protocol was employed to analyze the mRNA levels of bcl-xl, bax, akt, caspase-3, CDC25C and cyclinB1. Beta-actin was used as a housekeeping gene. According to primer sequences of bcl-xl, bax, akt, caspase-3, CDC25C, cyclinB1 and β-actin genes retrieved from Primer-Bank, primers were designed with the Primer 5.0 software, which were synthesized by Shanghai Sangon Biological Engineering Technology. These primer sequences are as follows: • bcl-xl forward 5′-[…]-3′, • bcl-xl reverse 5′-[…]-3′; • bax forward 5′-[…]-3′, • bax reverse 5′-[…]-3′; • akt forward 5′-[…]-3′, • akt reverse 5′-[…]-3′; • caspase-3 forward 5′-[…]-3′, • caspase-3 reverse 5′[…]-3′; • CDC25C forward 5′-[…]-3′, • CDC25C reverse 5′-[…]-3′; • cyclinB1 forward 5′-[…]-3′, • cyclinB1 reverse 5′-[…]-3′; • β-actin forward 5′-[…]-3′, • β-actin reverse 5′-[…]-3′.
Primary ovarian cancer cells were harvested after ACFP treatment at different doses and times, respectively. The total RNAs in the primary ovarian cancer cells were extracted according to the Trizol kit manufacturer’s instructions, and the purity and concentration were determined by ultraviolet spectrophotometry. […]
Real time PCR adopts TaKaRa SYBR Green as real time PCR Master Mix in ABI7500 fluorescent real-time PCR instrument. […] Finally, the relative mRNA expression of all samples were calculated using the 2^-ΔΔCt method. […]

[3] = tested on: primary ovarian cancer cells; type: cell-based, human
Description: Fresh primary ovarian tumor tissues that were assessed and classified as serous ovarian adenocarcinoma (III-IV grade) according to WHO criteria were collected from 53 ovarian cancer patients who underwent initial debulking surgery at the first affiliated hospital of Anhui Medical University between June 2012 and June 2014. All patients had not received adjuvant therapies, such as chemotherapy or radiotherapy, prior to surgery. For comparison, normal ovarian glandular epithelium cells (NOGECs) were cultured from fresh primary normal ovarian tissues harvested from 7 patients with uterine fibromas, which were confirmed as negative for any neoplastic disease by pathological examination. Prior to tissue deposition, all patients signed written consent forms confirming their donation of tissue for research purposes according to the Declaration of Helsinki. This study was approved by the Anhui Medical University Review Board. Tumor or normal ovarian tissues were cut into small 1.0 mm^3 pieces, rinsed two times in phosphate buffered saline (PBS) and digested with 0.25 % trypsin in a sterile centrifuge tube at 37 °C for 30 min. To obtain a single cell suspension cell, digested tissues were filtered with a 100 μm cell strainer. Cells were collected by centrifugation at 1000 rpm for five minutes, and the cell pellet was re-suspended in Dulbecco’s modified eagle medium (DMEM) supplemented with 10 % fetal bovine serum (FBS). Cells were subsequently cultured in DMEM containing 0.1 mg/L epidermal growth factor (EGF), 0.1 mg/L insulin-like growth factor (IGF) and 0.1 mg/L beta-estradiol with 10 % FBS in 5 % CO2 at 37 °C. Once cells reached 70 to 80 % confluence, cell culture medium was drained from the flask, and cells were digested with 0.25 % collagenase II until approximately 1/3 of the cells fell to the bottom of the dish by eye using a microscope. Due to their initial shedding, most fibroblasts were eliminated by collagenase digestion. The remaining cells were cultured in 5 % CO2 at 37 °C. To determine purity, cells were analyzed using immunofluorescence of cytokeratin 7 (for ovarian cancer cells) or cytokeratin 19 (for normal ovarian epithelium cells).
Primary ovarian cancer cells were seeded into 96-well plates in sextuplicate at a starting density of 5 × 10^3 cells/well and incubated with ACFP at the concentrations: 0 (as control), 5 × 10^−6, 5 × 10^−5, 5 × 10^−4, 5 × 10^−3, 5 × 10^−2, 5 × 10^−1 and 5 g/L for 24, 48 and 72 h, respectively. Cells treated with paclitaxel at 5 × 10^−4 g/L were included in the same plate as a positive control. Cell viability was later measured using the WST-1 (water-soluble tetrazolium 1) cell viability and cytotoxicity assay kit (Beyotime, Haimen, China) according to the manufacturer’s instructions. The percent viability of cells was calculated using the formula to calculate the cell viability ratio (VR): VR (%) = (the experimental group A450nm value/control group A450nm value) × 100 %. To assess general toxicity of ACFP, viability of normal ovarian cells treated with ACFP was assayed using the same procedure. The effect of ACFP was compared with LfcinB and PGPIPN (the products of Shanghai Sangon Biological Engineering Technology, China). Each experiment was performed in two independent sets.

In the case of `CC[C@H](C)[C@@H]1NC(=O)[C@H](CO)NC(=O)[C@@H]2CCCN2C(=O)[C@H](C)NC(=O)CNC(=O)[C@H](CC(C)C)NC(=O)[C@H](CCCCN)NC(=O)[C@H](CCCCN)NC(=O)[C@H](CCSC)NC(=O)[C@H](CCCNC(=N)N)NC(=O)[C@H](Cc2c[nH]c3ccccc23)NC(=O)[C@H](CCC(N)=O)NC(=O)[C@H](Cc2c[nH]c3ccccc23)NC(=O)[C@H](CCCNC(=N)N)NC(=O)[C@H](CCCNC(=N)N)NC(=O)[C@@H](NC(=O)[C@H](CCCCN)NC(=O)[C@@H](N)Cc2ccccc2)CSSC[C@@H](C(=O)N[C@H](C(=O)N[C@@H](CCCNC(=N)N)C(=O)N[C@@H](CCCNC(=N)N)C(=O)N[C@@H](C)C(=O)N[C@@H](Cc2ccccc2)C(=O)NCC(=O)NCC(=O)NCC(=O)NCC(=O)N[C@@H](CO)C(=O)N2CCC[C@H]2C(=O)NCC(=O)N2CCC[C@H]2C(=O)N[C@H](C(=O)N2CCC[C@H]2C(=O)N[C@@H](CC(N)=O)C(=O)O)[C@@H](C)CC)C(C)C)NC(=O)[C@H]([C@@H](C)O)NC1=O` [ACFP] (H-FKCRRWQWRMKKLGAPSITCVRRAFGGGGSPGPIPN-OH; disulfide 3-20; N-terminus and C-terminus assumed), the stability (stability in pH 7 water) is reported as “very stable; also recorded: good stability”, the “protein levels of Bax and Caspase-3” value ([1]; different concentrations, compared to control-treated group) is reported as “elevated” and the “protein levels of Bcl-xl, Akt, CDC25C and CyclinB1” value ([1]; increasing drug concentration) is reported as “gradually decreased”. The “mRNA expression of bax and caspase-3” value [2] was “gradual increase”, the “mRNA expression of bcl-xl, akt, CDC25C and cyclinB1” value [2] was “gradually decreased” and the “IC50, cell viability” value ([3]; 24 h) was 11.5 µg/mL (≈ 2.86 µM). For the same compound, the “IC50, cell viability” value ([3]; 48 h) was 1.63 µg/mL (≈ 0.406 µM), the “IC50, cell viability” value ([3]; 72 h) was 0.388 µg/mL (≈ 0.0966 µM) and the “growth of human primary ovarian cells” value ([3]; different concentrations, 48 h, in vitro, n=12, Figure S1) was “decreased growth”.
